Source: patent US11819532B2, “Peptide macrocycles against Acinetobacter baumannii” (Hoffmann-La Roche Inc., priority 2018, dated 2023)

Legend:
[1] = positive control and comparator in all assay runs; cited from earlier work
A. baumannii ATCC 17978 = assay: 50% growth inhibitory concentration (IC50) determination, antimicrobial susceptibility testing; type: cell-based; details: Acinetobacter baumannii; 50% growth inhibition, A. baumannii strain ATCC17978, Iso-Sensitest medium; read-out: IC50 ATCC17978
[2] = Plasma precipitation screening assay; design: species or system rat; details: minimal effect concentration, lowest concentration giving absorbance difference OD362≥0.05, rat plasma 1:1, 10 minutes room temperature
[3] = Single dose pharmacokinetic study in male rats; details: rat, plasma, intravenous bolus dose of 6 mg/kg, read-out: rat clearance, observed in vivo
Protocol: Three male rats were administered with compound formulation (3 mg/mL in 0.9% saline) as an intravenous bolus dose of 6 mg/kg.
(§1) Blood was sampled at 0.08, 0.25, 0.5, 1, 2, 4, 7 and 24 hours after administration and the blood collecting tubes were centrifuged for 5 min at 5200 g at room temperature to isolate the plasma supernatant.
Concentrations of compound in plasma were analyzed using a LC-MS method with a calibration range of 1-2500 ng/mL. The clearance values are calculated using methods described in the art and are summarised in Example 23.

[4] = Single dose pharmacokinetic study in male cynomolgus monkeys; details: cynomolgus monkey, plasma, intravenous bolus dose of 1 mg/kg, read-out: cynomolgus monkey clearance, observed in vivo
Protocol: Three male monkeys were administered with compound formulation (2 mg/mL in 0.9% saline) as an intravenous bolus dose of 1 mg/kg.
as §1
Concentrations of compound in plasma were analyzed using a LC-MS method with a calibration range of 0.5-2500 ng/mL and are summarised in Example 23.

primary hepatocytes [5] = assay: Hepatocyte uptake assay scaled to in vivo clearance (rat); type: in vitro ADME; details: scaled from rat hepatocyte uptake, well-stirred liver model
Description: (§2) The compounds of the present invention are cleared through hepatic uptake, which can be determined experimentally in vitro using methods described in the art (e.g., K. Menochet, K. E. Kenworthy, J. B. Houston, A. Galetin, Journal of Pharmacology and Experimental Therapeutics 2012, 34, 2). In cases where the scaled in vitro hepatocyte uptake clearance data correspond to the clearance observed in animals, a meaningful prediction of the human clearance can be made on the basis of in vitro human hepatocyte uptake data.
(§3) The hepatocyte uptake assay was performed manually in 24-well plates in analogy to a protocol described in the literature (K. Menochet, K. E. Kenworthy, J. B. Houston, A. Galetin, Journal of Pharmacology and Experimental Therapeutics 2012, 34, 2). […] Next, the cell monolayer was lysed using acetonitrile/water 3:1, and the intracellular concentration was measured using LC-MS/MS.
(§4) Total (CLuptake) and passive (CLpassive) uptake clearance values were measured from initial uptake rates in the absence and presence of inhibitors. Uptake rates were calculated over 10 minutes at 37° C. from the slope of the linear regression of the cell concentrations versus time plot. Total and passive uptake clearance values were calculated by dividing the slope by the initial substrate concentration and were normalized for protein content. […]

primary hepatocytes [6] = assay: Hepatocyte uptake assay scaled to in vivo clearance (cynomolgus monkey); type: in vitro ADME; details: scaled from monkey hepatocyte uptake, well-stirred liver model
Description: as §2, §3, §4

primary hepatocytes [7] = assay: Hepatocyte uptake assay scaled to in vivo clearance (human); type: in vitro ADME; details: scaled from human hepatocyte uptake, well-stirred liver model
Description: as §2, §3, §4

| Structure (SMILES) | precipitation in plasma [1] | IC50 (A. baumannii ATCC 17978) [nM] | Plasma precipitation MEC [2] [µmol/L] | clearance [3] [mL/min/kg] | clearance [4] [mL/min/kg] | rat clearance, in vitro scaled (primary hepatocytes [5]) [mL/min/kg] | cynomolgus monkey clearance, in vitro scaled (primary hepatocytes [6]) [mL/min/kg] | human clearance, in vitro scaled (predicted) (primary hepatocytes [7]) [mL/min/kg] |
| --- | --- | --- | --- | --- | --- | --- | --- | --- |
| CN1C(=O)[C@H](CCCCN)NC(=O)[C@H](CCCN)NCc2cccnc2Sc2c(Cl)ccc(Cl)c2CNC(=O)[C@@H]1Cc1c[nH]c2ccccc12 [CAS-RN 2097284-11-0, (11S,14S,17S)-14-(4-Aminobutyl)-11-(3-aminopropyl)-22,25-dichloro-17-(1H-indol-3-ylmethyl)-16-methyl-2-thia-4,10,13,16,19-pentazatricyclo[19.4.0.03,8]pentacosa-1(25),3(8),4,6,21,23-hexaene-12,15,18-trione] | known to induce precipitation in plasma | – | – | – | – | – | – | – |
| CN1C(=O)[C@H](CCCCN)NC(=O)[C@H](CCCN)NCc2cccnc2Sc2cccc(-c3ccc(C(=O)O)cc3)c2CNC(=O)[C@@H]1Cc1c[nH]c2ccccc12 [Example 1.00, 4-[(11S,14S,17S)-14-(4-Aminobutyl)-1-(3-aminopropyl)-17-(1H-indol-3-ylmethyl)-16-methyl-12,15,18-trioxo-2-thia-4,10,13,16,19-pentazatricyclo[19.4.0.03,8]pentacosa-1(25), 3(8),4,6,21,23-hexaen-22-yl]benzoic Acid] | – | 98 | 1110 | 14.3 | 4.8 | 14.5 | 3.8 | 0.46 |
| CN1C(=O)[C@H](CCCCN)NC(=O)[C@H](CCCN)NCc2cccnc2Sc2c(Cl)ccc(-c3ccc(C(=O)O)cc3)c2CNC(=O)[C@@H]1Cc1c[nH]c2ccccc12 [drawing 99, reference compound] | – | – | – | 23.5 | 14.5 | 28.7 | 28.3 | 3.91 |
